# Assay results from US20190054057A1, “IMMUNE BOOSTING DIETARY COMPOUNDS FOR DISEASE CONTROL AND PREVENTION” (THE BOARD OF REGENTS FOR OKLAHOMA STATE UNIVERSITY OFFICE …, priority 2016, published 2019).
# Where a SMILES comes first, the peptide text is derived from it. The star is where a group is joined. Cbz = O=C(OCc1ccccc1)*
# Assays:
# Assay type in all cases: cell-based
# AvBD9 [1] = assay: AvBD9 gene expression in chicken peripheral blood mononuclear cells (PBMCs) (real-time RT-PCR); settings: for AvBD9 gene expression, maximum fold increase, compound alone: 50 to 250 μM, dose-dependent; for Effect of pathway inhibitor on butyrate-induced AvBD9 expression: 1 h inhibitor pretreatment, then 2 mM sodium butyrate 24 h; for Effect on AvBD9 induction, compound alone: without butyrate
# Description: (§1) Chicken HD11 macrophage cell line was obtained from USDA-Agricultural Research Services (ARS), and chicken HTC macrophage cell line was secured from USDA-ARS. Both HD11 and HTC macrophage cells were propagated in RPMI 1640 containing 10% fetal bovine serum (FBS), 100 μg/ml streptomycin, and 100 U/ml penicillin. Peripheral blood mononuclear cells (PBMCs) were isolated from EDTA-anticoagulated chicken blood by gradient centrifugation with Histopaque 1077 (Sigma) following manufacturer's instructions. Briefly, chicken blood was overlaid onto Histopaque 1077 (Sigma) at 1:1 ratio, and centrifuged at 400×g for 30 min. Interphase containing PBMCs was aspirated and washed 3 times with PBS at 250×g for 10 min. Cell pellet was re-suspended with RPMI 1640, supplemented with 10% FBS, 100 μg/ml streptomycin, 100 U/ml penicillin, and 20 mM HEPES. After being seeded overnight at 2×10^6/well in 6-well tissue culture plates, cells were treated with different concentrations of chemicals. For signaling studies, cells were pre-treated with different signaling agonists or inhibitors for 1 h, followed by stimulation with sodium butyrate or its structural analogs for another 24 h. Cells were then lysed in RNAzol (Molecular Research Center, Cincinnati, Ohio) for RNA extraction.
# (§2) Total RNA was extracted from chicken cells and tissues using RNAzol RT (Molecular Research Center) and quantitated using Nanodrop 1000 (Nanodrop Products, Wilmington, Del.). RNA (0.3 μg) was reverse transcribed in 4-μl reactions using Maxima First Strand cDNA Synthesis Kit (Thermo Fisher Scientific, Pittsburgh, Pa.) according to the manufacturer's instructions. The cDNA was then diluted 10 times with RNase-free water prior to real-time PCR analysis of AvBD9 and GAPDH as were described previously. The primers used for AvBD9 primers were […] (SEQ ID NO: 1, forward) and […] (SEQ ID NO: 2, reverse), whereas the primers for chicken glyceraldehyde-3-phosphate dehydrogenase (GAPDH) were […] (SEQ ID NO: 3, forward) and […] (SEQ ID NO: 4, reverse). QuantiTect SYBR Green PCR Kit (Qiagen, Valencia, Calif.) was used in 10 μl reactions with 4 and 1 μl of diluted cDNA for AvBD9 and GAPDH, respectively. Real-time PCR was performed with an initial activation at 95° C. for 10 min, followed by 40 cycles at 94° C. for 15 sec, 55° C. for 20 sec and 72° C. for 30 sec. Melting curve analysis was carried out to confirm the specificity of PCR amplification. Relative fold change in the AvBD9 gene expression was calculated using the ΔΔCt method normalized against the GAPDH levels.
# AvBD9 [2] = assay: AvBD9 gene expression in chicken HD11 macrophage cells (real-time RT-PCR); settings: for Induction of AvBD9 gene expression: compound alone, different concentrations; for Efficacy of AvBD9 induction compared with butyrate: 24 h stimulation; for Induction of AvBD9 gene expression by sugars: 0.2 M, up to 48 h; for Synergy with butyrate in AvBD9 induction: 2 mM butyrate with 0.2 M sugar, 12 h; for Effect of pathway inhibitor on lactose-induced AvBD9 expression: 1 h inhibitor pretreatment, then 0.2 M lactose 24 h
# Description: as §1, §2
# AvBD9 [3] = assay: AvBD9 gene expression in chicken jejunal explants (real-time RT-PCR); settings: 2 mM butyrate and/or 0.1 M lactose, 24 h
# Description: A segment of chicken jejunum was harvested from 1- to 2-week-old broiler chickens, washed thoroughly in cold PBS containing 100 μg/ml of gentamicin, 100 U/ml penicillin, and 100 μg/ml streptomycin, and then cut into a series of 0.5-cm-long segments. Jejunal segments were placed individually in 6-well plates and cultured in 4 ml RPMI 1640 containing 10% FBS, 20 mM HEPES, 100 U/ml penicillin, 100 μg/ml streptomycin, and 100 μg/ml gentamicin. […] Jejunal segments were homogenized in RNAzol RT for RNA extraction.
# (§3) The cDNA was then diluted 10 times with RNase-free water prior to real-time PCR analysis of AvBD9 and GAPDH as were described previously. The primers used for AvBD9 primers were […] (SEQ ID NO: 1, forward) and […] (SEQ ID NO: 2, reverse), whereas the primers for chicken glyceraldehyde-3-phosphate dehydrogenase (GAPDH) were […] (SEQ ID NO: 3, forward) and […] (SEQ ID NO: 4, reverse). QuantiTect SYBR Green PCR Kit (Qiagen, Valencia, Calif.) was used in 10 μl reactions with 4 and 1 μl of diluted cDNA for AvBD9 and GAPDH, respectively.
# acetyl-histone 4 (Ac-H4) = assay: Histone 4 acetylation in chicken HD11 cells (immunoblotting, Ac-H4); settings: 2 mM butyrate and/or 0.2 M lactose, 6 h
# Description: After stimulation with various compounds, chicken HD11 cells were washed with PBS and lysed in the RIPA lysis buffer (Santa Cruz Biotechnology, Dallas, Tex.). Protein concentration was measured by the Bradford Assay (Bio-Rad, Hercules, Calif.). For the determination of histone 4 acetylation levels, 20 μg of proteins was separated by 12.5% SDS-PAGE gel and then transferred to a PVDF membrane. After overnight blocking in the blocking buffer at 4° C., the membrane was incubated with a primary rabbit antibody against acetyl-histone 4 (Ac-H4) (Cell Signaling, #8647) in the blocking buffer for 1 h at room temperature. After three washes, the membrane was incubated with an alkaline phosphatase-conjugated goat anti-rabbit IgG antibody (Sigma-Aldrich, St. Louis, Mo.) for 45 min at room temperature. Another membrane was prepared in parallel, but incubated with a rabbit antibody against β-Actin (#A2103) to reveal a similar amount of protein loading. The signaling was visualized by incubation with the ECL reagent (Santa Cruz Biotechnology).
# AvBD9 [4] = assay: AvBD9 gene expression in chicken HTC macrophage cells (real-time RT-PCR)
# Description: For signaling studies, cells were pre-treated with different signaling agonists or inhibitors for 1 h, followed by stimulation with sodium butyrate or its structural analogs for another 24 h.
# as §3
# AvBD9 [5] = assay: AvBD9 gene expression in chicken peripheral blood mononuclear cells (PBMCs) (real-time RT-PCR); settings: 1 h inhibitor pretreatment, then 10 μM quercetin 24 h
smiles,measurement,setting,value
CS(=O)(=O)Nc1ccc([N+](=O)[O-])cc1Oc1ccccc1 [nimesulide],"AvBD9 gene expression, maximum fold increase, compound alone",AvBD9 [1],approximately 70 fold
CCCC(=O)OC/C=C/c1ccccc1 [trans-cinnamyl butyrate],Induction of AvBD9 gene expression,AvBD9 [2]; 24 h,dose-dependently induced
"CCCC(=O)OCC(COC(=O)CCC)OC(=O)CCC [glyceryl tributyrate, Glyceryl tributyrate]",Efficacy of AvBD9 induction compared with butyrate,AvBD9 [2],comparable efficacy to butyrate
same,Induction of AvBD9 gene expression,AvBD9 [2]; 24 h,dose-dependently induced
"C[C@H]1O[C@@H](n2cnc3c(N)ncnc32)C[C@@H]1O [DDA, 2′-5′-dideoxyadenosine]",Effect of pathway inhibitor on butyrate-induced AvBD9 expression,AvBD9 [1],"strikingly strong, dose-dependent increase"
Oc1ccc(C=Cc2cc(O)cc(O)c2)cc1 [resveratrol],"Effect on AvBD9 induction, compound alone",AvBD9 [1],modest effect
"CC(/C=C/C(=O)NO)=C\[C@@H](C)C(=O)c1ccc(N(C)C)cc1 [trichistatin A, reference compound]",Induction of AvBD9 gene expression,AvBD9 [2]; 24 h,dose-dependent stimulation
OC[C@H]1O[C@@H](O[C@H]2[C@H](O)[C@@H](O)C(O)O[C@@H]2CO)[C@H](O)[C@@H](O)[C@H]1O (some centres unmarked) [lactose],"AvBD9 induction, fold",AvBD9 [3],15 fold
same,Histone 4 acetylation,acetyl-histone 4 (Ac-H4),no impact
same,"AvBD9 induction, maximum fold","AvBD9 [2]; 0.2 M lactose alone, 6 h",350 fold
same,Induction of AvBD9 gene expression by sugars,AvBD9 [2],stimulated AvBD9 gene expression in a time-dependent manner
OC[C@@H](O)[C@@H](O)[C@H](O)[C@H](O)CO [mannitol],Synergy with butyrate in AvBD9 induction,AvBD9 [2],comparably synergy
"CN(C)c1ccc(C(=O)NCCCCCC(=O)NO)cc1 [CAY10398, reference compound]",Induction of AvBD9 gene expression,AvBD9 [2]; 24 h,dose-dependent stimulation
"C[S+]([O-])c1ccc(-c2nc(-c3ccncc3)c(-c3ccc(F)cc3)[nH]2)cc1 (centres unmarked) [SB203580, reference compound]",Effect of pathway inhibitor on lactose-induced AvBD9 expression,AvBD9 [2],no influence
same,Effect of pathway inhibitor on butyrate-induced AvBD9 expression,AvBD9 [1],"substantial, but not complete reduction"
O=C(CO)[C@@H](O)[C@H](O)[C@H](O)CO [fructose],Induction of AvBD9 gene expression by sugars,AvBD9 [2],stimulated AvBD9 gene expression in a time-dependent manner
CCCCCCCCCCCCCCCc1cccc(O)c1C(=O)O [anacardic acid],"Effect on AvBD9 induction, compound alone",AvBD9 [1],modest effect
"COc1cccc(-c2cc(=O)c3ccccc3o2)c1N [PD98059, reference compound]",Effect of pathway inhibitor on lactose-induced AvBD9 expression,AvBD9 [2],synergized substantially
same,Effect of pathway inhibitor on butyrate-induced AvBD9 expression,AvBD9 [1],strong synergistic AvBD9 induction
OC[C@H]1O[C@H](O[C@H]2O[C@H](CO)[C@@H](O)[C@H](O)[C@H]2O)[C@H](O)[C@@H](O)[C@@H]1O [trehalose],Synergy with butyrate in AvBD9 induction,AvBD9 [2],clear synergy
O=C(O)c1cccnc1Nc1cccc(C(F)(F)F)c1 [niflumic acid],"AvBD9 gene expression, maximum fold increase, compound alone",AvBD9 [1],"~14,000 fold"
"O=C(CCCCCCC(=O)Nc1ccccc1)NO [SAHA, suberoylanilide hydroxamic acid, reference compound]",Induction of AvBD9 gene expression,AvBD9 [2]; 24 h,dose-dependent stimulation
"CCCC(=O)OCc1ccccc1 [benzyl butyrate, Benzyl butyrate]",Efficacy of AvBD9 induction compared with butyrate,AvBD9 [2],comparable efficacy to butyrate
same,Induction of AvBD9 gene expression,AvBD9 [2]; 24 h,dose-dependently induced
"Nc1ccc2ncnc(NCCc3ccc(Oc4ccccc4)cc3)c2c1 [QNZ, reference compound]",Effect of pathway inhibitor on lactose-induced AvBD9 expression,AvBD9 [2],no influence
"Nc1ncnc2c1ncn2C1CCCO1 (centres unmarked) [SQ22536, reference compound]",Effect of pathway inhibitor on lactose-induced AvBD9 expression,AvBD9 [2],no influence
"CCCC(=O)[O-].[Na+] [butyrate, Sodium butyrate]","AvBD9 induction, fold",AvBD9 [3],100 fold
same,Histone 4 acetylation,acetyl-histone 4 (Ac-H4),minimum histone 4 acetylation
same,"AvBD9 induction, peak fold","AvBD9 [2]; 2 mM butyrate alone, 24 h","approximately 1,750 fold"
"CCCC(=O)Nc1ncnc2c1ncn2[C@@H]1O[C@@H]2COP(=O)(O)O[C@H]2[C@H]1OC(=O)CCC [dibutyryl cAMP, reference compound]",Efficacy of AvBD9 induction compared with butyrate,AvBD9 [2],comparable efficacy to butyrate
same,Induction of AvBD9 gene expression,AvBD9 [2]; 24 h,dose-dependently induced
CC(C)C[C@@H](C=O)NC(=O)[C@H](CC(C)C)NC(=O)[C@H](CC(C)C)NC(=O)OCc1ccccc1 [MG132] (Cbz-Leu-Leu-Leu-aldehyde),Effect of pathway inhibitor on butyrate-induced AvBD9 expression,AvBD9 [1],nearly complete abolishment
C=C(C)[C@@H](CC=C(C)C)C[C@@]12C[C@@H](CC=C(C)C)C(C)(C)[C@@](CC=C(C)C)(C(=O)C(C(=O)c3ccc(O)c(O)c3)=C1O)C2=O [garcinol],"AvBD9 induction, peak fold increase, compound alone",AvBD9 [1]; garcinol without butyrate,approximately 7 fold
O=c1c(O)c(-c2ccc(O)c(O)c2)oc2cc(O)cc(O)c12 [quercetin],Reduction of AvBD9 induction at 48 h relative to 24 h,AvBD9 [4]; 40 μM quercetin,210 fold
same,"AvBD9 expression, fold increase at peak","AvBD9 [4]; 40 μM quercetin, 24 h",approximately 500 fold
same,Concentration giving peak AvBD9 response,"AvBD9 [4]; quercetin alone, 24 h",40 µM
same,Induction of AvBD9 gene expression (dose dependence),"AvBD9 [4]; quercetin alone, 24 h",dose-dependent induction
same,"AvBD9 expression, fold increase","AvBD9 [1]; 40 μM quercetin alone, 24 h","approximately 6,500 fold"
same,Induction of AvBD9 (dose dependence),"AvBD9 [1]; quercetin alone, 24 h",dose-dependently induced
S=C(S)N1CCCC1 [PDTC],Effect of pathway inhibitor on quercetin-mediated AvBD9 expression,AvBD9 [5],did not show much effect
"CCCC(CCC)C(=O)[O-].[Na+] [sodium valproate, reference compound]",Induction of AvBD9 gene expression,AvBD9 [2]; 24 h,dose-dependent stimulation
"O=C(O)CCc1ccccc1 [hydrocinnamic acid, Hydrocinnamic acid]",Induction of AvBD9 gene expression,AvBD9 [2]; 24 h,dose-dependently induced
O=C[C@H](O)[C@@H](O)[C@@H](O)[C@H](O)CO [galactose],Synergy with butyrate in AvBD9 induction,AvBD9 [2],clear synergy
same,Induction of AvBD9 gene expression by sugars,AvBD9 [2],stimulated AvBD9 gene expression in a time-dependent manner
